In patent US20040096455A1, “Transdermal vaccine delivery device having coated microprotrusions” (priority 2002, published 2004):
Where two headings read alike, the source gives them in different places.

Key:
ovalbumin = molecular target: T1, ovalbumin (Gallus gallus, UniProt P01012); assay: Solubilization of 0.5 wt % ovalbumin solution by surfactants; assay type: physicochemical
T1 sequence (P01012 1-386): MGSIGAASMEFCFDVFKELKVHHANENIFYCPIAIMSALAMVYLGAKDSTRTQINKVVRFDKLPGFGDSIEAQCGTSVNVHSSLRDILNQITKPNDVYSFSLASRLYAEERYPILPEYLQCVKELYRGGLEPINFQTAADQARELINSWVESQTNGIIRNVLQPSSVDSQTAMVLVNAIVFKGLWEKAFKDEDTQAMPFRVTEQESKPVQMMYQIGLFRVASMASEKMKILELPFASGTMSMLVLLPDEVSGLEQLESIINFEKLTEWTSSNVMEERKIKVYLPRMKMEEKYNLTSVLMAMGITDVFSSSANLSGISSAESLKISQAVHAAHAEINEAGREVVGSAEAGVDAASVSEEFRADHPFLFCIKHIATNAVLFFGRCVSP
Excerpt: Other surfactants and concentrations were test against a solution 0.5 wt % ovalbumin.

[1] = test system: monovalent "split-varion" influenza vaccine (A/Panama/2007/99, H3N2); assay type: physicochemical, influenza virus
[2] = 0.5 wt % ovalbumin, Surfactant Concentration 0.0085 M
[3] = 0.5 wt % ovalbumin, Surfactant Concentration 0.017 M
[4] = 0.5 wt % ovalbumin, Surfactant Concentration 0.035 M
[5] = 0.5 wt % ovalbumin, Surfactant Concentration 0.052 M
[6] = 0.5 wt % ovalbumin, Surfactant Concentration 0.069 M

For `CCCCCCCCOS(=O)(=O)[O-].[Na+]` [Sodium octylsulfate], the “complete solubilization of ovalbumin solution” value (“complete solubilization” for short) (ovalbumin) was “−”.
In the case of `CCCCCCCCCCCCCCCCCCOS(=O)(=O)[O-].[Na+]` [Sodium octadecylsulfate], the “complete solubilization” value (ovalbumin) is reported as “−”.
`CCCCCCCCCCCC(=O)[O-].[Na+]` [Sodium laurate] was tested, and the “complete solubilization” value (ovalbumin; [2]) was “−”, the “complete solubilization” value (ovalbumin; [3]) was “−” and the “complete solubilization” value (ovalbumin; [4]) was “+”. The “complete solubilization” value (ovalbumin; [5]) was “+” and the “complete solubilization” value (ovalbumin; [6]) was “+”.
With `CCCCCCCCCC[N+](C)(C)CCCS(=O)(=O)[O-]` [Zwittergent 3-10] the “Turbidity @ 340 nanometers (200 μg/ml)” value [1] was 0.120.
In the case of `CCCCCCCCCCCCCC[N+](C)(C)CCCS(=O)(=O)[O-]` [Zwittergent 3-14], the “Turbidity @ 340 nanometers (200 μg/ml)” value [1] is reported as 0.070.
`CCCCCCCCCCCCCCOS(=O)(=O)[O-].[Na+]` [Sodium tetradecylsulfate] was tested, and the “complete solubilization” value (ovalbumin) was “−”.
`CCCCCCCCCCCC[N+](C)(C)CCCS(=O)(=O)[O-]` [Zwittergent 3-12] was tested, and the “Turbidity @ 340 nanometers (200 μg/ml)” value [1] was 0.087.
For `CCCCCCCCCCCC[N+](C)(C)C.[Br-]` [Dodecyltrimethylammonium Br], the “complete solubilization” value (ovalbumin; [2]) was “−”, the “complete solubilization” value (ovalbumin; [3]) was “−” and the “complete solubilization” value (ovalbumin; [4]) was “−”. The “complete solubilization” value (ovalbumin; [5]) was “−” and the “complete solubilization” value (ovalbumin; [6]) was “−”.
